Experimental data taken from a melting point compilation (Tetko et al.; mined from patent text by program, amines drawn as free bases though some values may be those of a salt).

Row | Compound | melting point [°C]
1 | Cc1ccc2c(c1)c(N1CCNCC1)c(C#N)c(=O)n2Cc1ccccc1 | 152
2 | C=CCOc1ccc(S(=O)(=O)c2ccc(C)nc2Nc2c(C)cc(C)cc2C)cc1 | 138 to 140
3 | CC1Cc2cc(O)ccc2C2C(F)CC3(C)CC(O)CC3C12 (centres undefined) | 239 to 240
4 | Cc1cc(NC2=NCCN2CCNC(=O)Nc2ccc(C(=O)O)cc2)nc(C)n1 | 160
5 | Cc1c(NC(=O)c2ccc(-c3ccc(Cl)s3)cc2F)ccc2cc(CN3CCCCC3)cnc12 | 205 to 206
6 | COc1cc(N2CCCN(C3CCN(C)CC3)CC2)ccc1Nc1ncc2ccc(-c3ccccc3N(C)S(C)(=O)=O)n2n1 | 90 to 97
7 | Cc1cc(-c2ccc(S(N)(=O)=O)cc2)n(-c2ccc(F)cc2F)c1 | 140 to 141
8 | NC(=O)C1c2ccccc2-c2ccccc21 | 250
9 | COc1cnn(C2CCCCO2)c(=O)c1Cl (centres undefined) | 118 to 120
10 | O=C(Nc1cc(N2CCNCC2)cc(C(F)(F)F)c1)c1cccc2cc(Oc3ccnc(NC(=O)C4CC4)c3)ccc12 | 244 to 247
11 | CCc1cccc2c(=O)c3c(cnn3C)[nH]c12 | 254
12 | Cc1nn(C)c2c(=O)[nH]cnc12 | 303 to 305
13 | N#CCCn1nc(-c2ccccc2)ccc1=O | 103 to 104
14 | CC(C)(C1OCCO1)C(O)(COc1ccc(F)cc1)Cn1cncn1 (centres undefined) | 102 to 104
15 | NCc1ccc(CN2CCN(c3ncccn3)CC2)cc1 | 70 to 72
16 | O=Cc1ccc(O)c(O)c1Cl | 193 to 195
17 | CC(C)N1CCC(CNc2ccccc2C(=O)Nc2ccc(Cl)cn2)CC1 | 277 to 280
18 | NC(=O)CNC(=O)COC[C@@H]1CCCN1C(=O)OCc1ccccc1 | 110 to 111
19 | CCOC(=O)c1c2n(c3ccc(Cl)cc3c1=O)CCS2 | 321
20 | O=C(O)c1ccc(NCCOc2cccc3ccccc23)cc1 | 193 to 194
21 | CCCCOc1ccccc1C1=NC(=O)C2=NC=NC2=N1 | 247 to 248
22 | Cc1cc(C)nc(S(=O)(=O)c2ccccc2)c1 | 106 to 107
23 | O=C1c2c(F)cc(F)c(F)c2C(=O)N1c1ccccc1 | 183 to 185
24 | CCCCn1cc(C2CCN(Cc3ccc(OC)c(C(=O)O)c3)CC2)c2cccnc21 | 174 to 175
25 | CC(=O)c1ccc(C(C)ON2C(C)(C)CCCC2(C)C)cc1 (centres undefined) | 61.5 to 63

Row | Compound | melting point [°C]
26 | CC(C)C[C@@H](CO)NC(=O)[C@@H](O)[C@@H](Cc1ccc(S(C)(=O)=O)cc1)NC(=O)OCc1ccccc1 | 165 to 173
27 | N#Cc1c(C(F)(F)F)nn(-c2c(Cl)cc(S(=O)(=O)C(F)(F)F)cc2Cl)c1[N+](=O)[O-] | 168 to 169
28 | O=C(OCC(Cl)(Cl)Cl)c1ccc2c(c1)C(C(Cl)(Cl)Cl)OC(C(Cl)(Cl)Cl)O2 (centres undefined) | 129 to 130
29 | C#Cc1cnc(OCCC)c(-c2nc3c(CC)n(C4CCN(C(=O)OC(C)(C)C)CC4)nc3c(=O)[nH]2)c1 | 221
30 | CCOC(=O)N1CC=C(c2cc(F)c(C#N)cc2F)CC1 | 85 to 87
31 | CC(CCCI)C(=O)Nc1nnc(C(C)(C)C)s1 (centres undefined) | 102
32 | Cc1cc2cn[nH]c2c(C(=O)NC(C)C)c1NC(=O)c1cc(C(F)F)nn1-c1ncccc1Cl | 250 to 253
33 | Cn1cc(C[C@H]2NC(=O)[C@@H](CCC(=O)O)NC2=O)c2ccccc21 | 228
34 | CC(C)CNc1c([N+](=O)[O-])cnc2cc(Br)cnc12 | 114 to 115
35 | CC(C)(C)OC(=O)NC(=N)NC(=O)c1cccc(P(c2ccccc2)c2ccccc2)c1 | 79 to 82
36 | COc1ccc(S(=O)(=O)n2ccc3ccnc(-c4ccc([N+](=O)[O-])cc4)c32)cc1 | 178 to 179
37 | Cc1cc(-c2c(Cl)ccc(C(=O)c3cnn(C)c3O)c2Cl)on1 | 143 to 144
38 | O[C@@H]1CN(Cc2ccccc2)C[C@H]1Oc1c(Cl)cccc1Cl (relative stereo) | 78 to 80
39 | Cc1ccc(OCc2nc3nccnc3c(=O)[nH]2)cc1 | 232 to 233
40 | CCOC(=O)c1ccc(OCC#Cc2ccccc2)c(OC)c1 | 62 to 65
41 | O=c1ccn(CCO)c(C(O)c2ccccc2F)c1O (centres undefined) | 177 to 178
42 | CCCCC1CCC(c2ccc(Cc3ccc(N)cc3)cc2)(c2ccc(Cc3ccc(N)cc3)cc2)CC1 | 58.5 to 60.1
43 | Cc1ccc2nc(-c3ccccc3)cc(OCc3ccccc3)c2c1 | 139
44 | Cn1c2nc3ccccc3nc2c2cccc(C=O)c21 | 220
45 | O=C(O)c1cc2cccnc2nc1C(=O)O | 199 to 202
46 | CC1C2C(C(=O)N1Cc1ccc3c(c1)OCO3)C(c1ccc(Br)cc1)N(C)C2(C)C (centres undefined) | 142 to 144
47 | CCOC(=O)C1=CCC2(CC1S(=O)(=O)Nc1ccc(F)cc1Cl)OCCO2 (centres undefined) | 120 to 122
48 | CN1C(=S)N(c2ccc(C#N)c(C(F)(F)F)c2)C(=O)C1(CO)CO | 169 to 170
49 | Cc1nc2c(N)nc3ccccc3c2n1CCOCCNS(C)(=O)=O | 152 to 155
50 | Cc1ccc(CCc2nc3cc(-c4ccc(S(=O)(=O)N(C)C)cc4)cnc3[nH]2)nc1N | 157

Row | Compound | melting point [°C]
51 | O=C(O)CCc1c[nH]c2c(C(=O)c3ccc(Cl)cc3)cccc12 | 190 to 202
52 | CCOC(=O)[C@H](CSCCc1ccccc1)NC(=O)C(CSC(C)=O)Cc1ccccc1 (some centres undefined) | 63 to 64
53 | COC(=O)c1cscc1NC(=O)COc1ccc(Cl)c(Cl)c1 | 179 to 182
54 | N/C(=C1/Sc2ccc(Cl)cc2C1=O)c1ccccc1Cl | 199 to 201
55 | O=C(c1ccc2ncsc2c1)N1CCC[C@H](c2nc(-c3ccc(F)cc3)no2)C1 | 63 to 64
56 | Cc1cc(Cl)nn2c(-c3ccnc4[nH]ccc34)c(-c3ccc(F)cc3)nc12 | 226 to 228
57 | CC(C)(C)OC(=O)Nc1ccc(C#Cc2ccc(F)cc2F)cc1[N+](=O)[O-] | 134 to 136
58 | CCOC(=O)NN1CCc2ccccc2C(Oc2ccc(C(F)(F)F)cc2)C1 (centres undefined) | 156 to 157
59 | CN(N)c1ncnc2c1cnn2C | 213 to 215
60 | COc1ccc(-c2cc(-c3nc(C)cs3)c(=O)n(C)c2-c2cnccn2)cc1 | 168 to 170
61 | COP(=O)(OC)C(O)c1ccccc1 (centres undefined) | 85 to 86
62 | CC(C(=O)O)S(=O)(=O)c1ccc2c(-c3ccccc3F)noc2c1Cl (centres undefined) | 220 to 225
63 | CC(C)N(CCC1(c2ccccc2)C(=O)NC(C)N2CCCCC21)C(C)C (centres undefined) | 142 to 145
64 | COc1cccc([C@H]2O[C@H](CC(=O)Nc3cc(CCC(=O)O)ccc3OC(C)C)C(=O)N(CC(C)(C)CO)c3ccc(Cl)cc32)c1OC | 133 to 136
65 | Cc1cc(C(C)(C)C)c(OC(=O)c2cc(C(C)(C)C)c(O)c(C(C)(C)C)c2)c(C)c1COC(=S)c1cc(C(C)(C)C)c(O)c(C(C)(C)C)c1 | 225 to 228
66 | Brc1ccc2c(c1)oc1cc(Br)ccc12 | 199 to 200
67 | CCCCNC(=O)C(C)(C)COc1cccc2nc(C)c(C(=O)O)c(N)c12 | 195 to 199
68 | OCC(O)CN1CCN(c2ncccn2)CC1 (centres undefined) | 118 to 120
69 | CS(=O)(=O)c1ccc(Cn2c3c(c4cc(F)cc(F)c42)CCCC(CC(=O)O)C3)cc1 (centres undefined) | 200 to 202
70 | Cc1cc(Cc2ccc(NC(=O)NCCO)cc2)n(C)c1C(=O)c1ccc(Cl)cc1 | 210
71 | CN1C[C@H](O)C[C@H]1C(N)=O | 138 to 140
72 | COC(=O)c1cc(C(=O)CNC(C)(C)Cc2ccc3c(c2)OCO3)ccc1OCc1ccccc1 | 134 to 141
73 | CCCCOc1ccc(C(=O)Nc2ccc3cc(CN4CCCC4)cnc3c2C)c(F)c1 | 138
74 | CCOC(=O)c1cc(C)c2c(c1)CC(=O)N2 | 238 to 241
75 | CC1(C)C(=O)Oc2ccc3ccc(Cn4cnnc4)cc3c21 | 256 to 257

Row | Compound | melting point [°C]
76 | O=C(NC(=O)c1ccccc1)NC1CCCc2ccccc21 (centres undefined) | 166 to 169
77 | CCCCCCCCCCCCCCCCOC(=O)c1cc(C(=O)OCCCCCCCCCCCCCCCC)cc(S(=O)O)c1 | 63 to 65
78 | CC(C)N1CCC(CNc2ccc(Cl)cc2C(=O)Nc2ccccn2)CC1 | 118 to 120
79 | CC(NC1CCc2ccccc21)C(=O)O (centres undefined) | 248 to 250
80 | CCN(CC)c1ccc(Nc2ccnc(Nc3cc(OC)c(OC)c(OC)c3)n2)cc1 | 87
81 | OC(Cn1cncn1)(c1ccc(F)cc1)C(F)(F)c1ccc(F)cc1 (centres undefined) | 128 to 130
82 | O=C(O)c1ccc(CNC(=O)C2Cc3ccccc3N2S(=O)(=O)c2ccc(-c3ccc(F)cc3Cl)cc2)cc1 (centres undefined) | 111 to 124
83 | CCOC(=O)c1ccc2c(c1)ncn2-c1cccc(COCc2ccccn2)c1 | 99.8 to 101
84 | O=CC(Cc1ccccc1)N1C(=O)c2ccccc2C1=O (centres undefined) | 115 to 117
85 | CCCCCCCCCCCCC(C)(C)NC(=O)Nc1ccccc1C(=O)NC1CCN(C(c2ccccc2)c2ccccc2)CC1 | 146 to 148
86 | CCN(CC)C(=O)c1cc(S(=O)(=O)Cc2ccccc2)c(N2CCC(c3ccccc3)CC2)cc1N(CC)CCN(C)C | 117 to 118
87 | Cc1ccc(C)c(SCCCCCCCC(=O)O)c1 | 60 to 63
88 | Fc1ccc2nc[nH]c(=S)c2c1 | 294 to 297
89 | COc1ccc(Cl)cc1CCCC(=O)O | 79 to 81
90 | O=C1CN2C(=O)CCC2N1 (centres undefined) | 155 to 157
91 | CCn1c(Oc2cccc(NC(=O)N(C)C)c2)nnc1[C@@H](C)NS(=O)(=O)c1ccc(Cl)c(Cl)c1 | 158 to 159
92 | CCOC(=O)C1CCN(C(=O)c2ccc(/C=C/C(=O)O)cc2)CC1 | 165
93 | COc1ccc(C(=O)Nc2ccccc2)cc1Nc1cccc(NC(C)=O)c1 | 202 to 203
94 | O=C1NCC(CCc2ccccc2Br)O1 (centres undefined) | 93.5 to 94.5
95 | COc1ncnc2c(Cl)c(NC3=NCCN3)ccc12 | 238 to 239
96 | O=C(O)/C=C/c1ccc(C(=C2CCCCCC2)c2ccc(O)c(Cl)c2)cc1 | 155 to 156
97 | CCCCCCCCc1ccc(CCC(NC(C)=O)(C(=O)OCC)C(=O)OCC)cc1 | 61
98 | COc1ccc(C2=NN(C3CCOCC3)C(=O)[C@H]3CC=CC[C@@H]23)cc1OC (relative stereo) | 175 to 177
99 | CS(=O)(=O)c1ccc(Oc2ccc(C#N)cc2)cc1 | 127 to 128
